Data: US20250152585A1, “PHARMACEUTICAL COMPOUND” (Duke Street Bio Limited, priority 2022, published 2025)
Like-named read-outs stand apart in the source and are kept apart here.

How the values were obtained:
[1] = biological target: T1, full length N-terminally FLAG-tagged PARP1 (Homo sapiens, UniProt P09874); test: PARP1 biochemical DELFIA assay (auto-PARylation); set-up: recombinant full length human N-terminally FLAG-tagged PARP1
[2] = biological target: T2, N-terminally FLAG-tagged PARP2 (amino acids 1-583) (Homo sapiens, UniProt Q9UGN5); test: PARP2 probe displacement HTRF assay; format: binding; settings: binned Kd
T2 construct: N-terminally FLAG-tagged PARP2 (amino acids 1-583)
T2 sequence (Q9UGN5 whole entry, the tested form may be a part): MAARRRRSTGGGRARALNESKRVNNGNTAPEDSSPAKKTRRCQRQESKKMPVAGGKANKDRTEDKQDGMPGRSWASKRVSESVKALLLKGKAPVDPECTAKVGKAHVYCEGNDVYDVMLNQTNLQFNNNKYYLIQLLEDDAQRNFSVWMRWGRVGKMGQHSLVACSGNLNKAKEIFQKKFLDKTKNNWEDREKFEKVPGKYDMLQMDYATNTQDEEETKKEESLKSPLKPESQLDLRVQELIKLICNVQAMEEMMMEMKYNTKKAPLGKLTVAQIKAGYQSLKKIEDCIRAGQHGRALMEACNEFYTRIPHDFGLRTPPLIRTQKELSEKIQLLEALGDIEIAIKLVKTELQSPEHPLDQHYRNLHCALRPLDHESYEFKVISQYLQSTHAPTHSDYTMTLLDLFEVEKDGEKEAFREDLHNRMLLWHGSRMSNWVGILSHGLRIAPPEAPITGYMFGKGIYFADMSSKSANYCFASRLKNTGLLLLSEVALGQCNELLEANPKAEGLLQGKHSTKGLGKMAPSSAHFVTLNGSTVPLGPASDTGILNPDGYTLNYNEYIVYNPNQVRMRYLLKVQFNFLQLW
Description: Data analysis was performed identical as for PARP1.

PARP1 = biological target: T3, PARP1 (Homo sapiens, UniProt P09874); test: NanoBRET cellular target occupancy assay, PARP1; format: cell-based; settings: for Kd: HEK293 cells transiently transfected with PARP1-NanoLuc fusion, tracer 11 nM, 2 hours at 37° C., Kd by Cheng-Prussoff; for Selectivity: NanoBRET, PARP1 over PARP2, Kd (PARP2)/Kd (PARP1)
T3 construct: host or cells: HEK293
T3 sequence (P09874 whole entry, the tested form may be a part): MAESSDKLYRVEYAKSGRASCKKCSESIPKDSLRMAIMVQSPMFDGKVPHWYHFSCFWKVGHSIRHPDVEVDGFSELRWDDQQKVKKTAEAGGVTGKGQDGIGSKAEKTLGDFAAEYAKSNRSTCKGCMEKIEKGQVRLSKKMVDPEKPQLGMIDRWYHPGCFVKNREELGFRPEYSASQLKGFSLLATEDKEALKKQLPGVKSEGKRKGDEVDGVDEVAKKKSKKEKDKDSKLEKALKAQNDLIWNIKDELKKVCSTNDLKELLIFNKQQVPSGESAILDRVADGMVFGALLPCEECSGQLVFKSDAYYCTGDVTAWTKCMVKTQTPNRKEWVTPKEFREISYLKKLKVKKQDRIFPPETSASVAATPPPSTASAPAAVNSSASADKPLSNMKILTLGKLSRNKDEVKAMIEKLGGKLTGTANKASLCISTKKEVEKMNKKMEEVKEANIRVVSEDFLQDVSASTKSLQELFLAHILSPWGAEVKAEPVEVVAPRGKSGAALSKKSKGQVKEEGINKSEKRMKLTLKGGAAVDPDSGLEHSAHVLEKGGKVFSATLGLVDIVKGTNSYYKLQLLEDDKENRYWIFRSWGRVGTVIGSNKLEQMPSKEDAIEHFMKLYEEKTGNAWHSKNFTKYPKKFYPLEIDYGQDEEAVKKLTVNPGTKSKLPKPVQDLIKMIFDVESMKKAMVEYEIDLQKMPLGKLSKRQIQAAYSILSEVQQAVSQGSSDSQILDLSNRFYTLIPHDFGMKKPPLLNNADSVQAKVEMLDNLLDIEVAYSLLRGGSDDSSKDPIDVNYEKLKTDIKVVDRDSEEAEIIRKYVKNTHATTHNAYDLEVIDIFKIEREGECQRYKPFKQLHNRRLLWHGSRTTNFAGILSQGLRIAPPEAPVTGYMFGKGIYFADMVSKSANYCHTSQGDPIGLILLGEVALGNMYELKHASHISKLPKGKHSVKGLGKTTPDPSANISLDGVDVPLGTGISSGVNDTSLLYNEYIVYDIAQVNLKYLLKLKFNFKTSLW

PARP2 = biological target: T4, PARP2 (Homo sapiens, UniProt Q9UGN5); test: NanoBRET cellular target occupancy assay, PARP2; format: cell-based; settings: HEK293 cells transiently transfected with PARP2-NanoLuc fusion; tracer 2 nM; 2 hours at 37° C.; Kd by Cheng-Prussoff
T4 construct: host or cells: HEK293
T4 sequence (Q9UGN5 whole entry, the tested form may be a part): as the sequence (Q9UGN5 whole entry, the tested form may be a part) above
From the text: NanoBRET Cellular Target Occupancy Assay

[3] = biological target: T1, full length N-terminally FLAG-tagged PARP1; test: PARP1 probe displacement HTRF assay; settings: for Selectivity: PARP1 over PARP2, ratio Kd (PARP2)/Kd (PARP1); for Kd: binned Kd
[4] = binned IC50, PARP1 biochemical DELFIA assay
[5] = read-out: PARP1 HTRF, PARP1 probe displacement HTRF
[6] = binned IC50, biochemical auto-PARylation assay
[7] = read-out: PARP1 HTRF, probe displacement HTRF

T1 sequence (P09874 whole entry, the tested form may be a part): as the sequence (P09874 whole entry, the tested form may be a part) above

SMILES | IC50 [1, 4] [nM] | Kd ([2]; PARP2 probe displacement HTRF) [nM] | Kd (PARP1) [nM] | Selectivity (PARP1) | Kd (PARP2) [nM] | Selectivity ([3]; probe displacement HTRF) | Kd [3, 5] [nM] | IC50 [1, 6] [nM] | Kd ([2]; probe displacement HTRF) [nM] | Kd [3, 7] [nM] | Kd ([3]; PARP1 HTRF, probe displacement HTRF) [nM] | Kd ([3]; PARP1 HTRF, PARP1 probe displacement HTRF) [nM]
CCc1ccc(C2CCN(C3CCN(c4ccc(C(=O)NC)nc4Cl)CC3)C2)[nH]c1=O (racemic) [Compound 144rac] | < 10 | 1000 to 10000 | < 10 | +++ (+++ indicate a value of at least 100) | > 10000 | +++ (+++ indicate a value of at least 100) | < 10 | – | – | – | – | –
CNC(=O)c1ccc(N2CCC(N3CCC(c4nc5[nH]cc(C(F)(F)F)c5c(=O)[nH]4)C3)CC2)cn1 (racemic) [Compound 150rac] | < 10 | < 10 | 10 to 100 | + (+ indicates a value of 10 to less than 50) | 100 to 1000 | − (− indicates a value of less than 10) | < 10 | – | – | – | – | –
CNC(=O)c1ccc(N2CCC(N3CCC(c4nc5ccccc5c(=O)[nH]4)C3)CC2)c(F)n1 (racemic) [Compound 157rac] | < 10 | 1000 to 10000 | < 10 | +++ (+++ indicate a value of at least 100) | > 10000 | +++ (+++ indicate a value of at least 100) | < 10 | – | – | – | – | –
CNC(=O)c1ccc(N2CCC(N3CCC(c4nc5c(c(C(F)(F)F)cn5C)c(=O)[nH]4)C3)CC2)cn1 (racemic) [Compound 170rac] | < 10 | < 10 | < 10 | + (+ indicates a value of 10 to less than 50) | 10 to 100 | − (− indicates a value of less than 10) | < 10 | – | – | – | – | –
CNC(=O)c1ccc(N2CCC(N3CCC(c4cc5ccc(F)cc5c(=O)[nH]4)C3)CC2)c(F)n1 (racemic) [Compound 174rac] | < 10 | 100 to 1000 | < 10 | +++ (+++ indicate a value of at least 100) | 1000 to 10000 | +++ (+++ indicate a value of at least 100) | < 10 | – | – | – | – | –
CNC(=O)c1ccc(N2CCC(N3CCC(c4cc5ccc(F)cc5c(=O)[nH]4)C3)CC2)c(Cl)n1 (racemic) [Compound 175rac] | < 10 | 100 to 1000 | < 10 | +++ (+++ indicate a value of at least 100) | 1000 to 10000 | +++ (+++ indicate a value of at least 100) | < 10 | – | – | – | – | –
CCc1cc(Cl)c(C2CCN(C3CCN(c4ccc(C(=O)NC)nc4)CC3)C2)[nH]c1=O (racemic) [Compound 255rac] | – | – | < 10 | +++ (+++ indicate a value of at least 100) | 1000 to 10000 | ++ (++ indicates a value of 50 to less than 100) | – | < 10 | 100 to 1000 | < 10 | – | –
CNC(=O)c1ccc(N2CCC(N3CCC(c4[nH]c(=O)c5ccccc5c4F)C3)CC2)cn1 (racemic) [Compound 258rac] | – | – | < 10 | +++ (+++ indicate a value of at least 100) | 100 to 1000 | +++ (+++ indicate a value of at least 100) | – | < 10 | 100 to 1000 | < 10 | – | –
CNC(=O)c1ccc(N2CCC(N3CCC(c4cc5ncc(F)cc5c(=O)[nH]4)C3)CC2)cn1 (racemic) [Compound 315rac] | – | – | < 10 | +++ (+++ indicate a value of at least 100) | 100 to 1000 | +++ (+++ indicate a value of at least 100) | – | < 10 | 100 to 1000 | < 10 | – | –
CNC(=O)c1ccc(N2CCC(N3CCC(c4cc5ncc(F)cc5c(=O)[nH]4)C3)CC2)c(F)n1 (racemic) [Compound 324rac, 6-fluoro-5-(4-(3-(3-fluoro-5-oxo-5,6-dihydro-1,6-naphthyridin-7-yl)pyrrolidin-1-yl)piperidin-1-yl)-N-methylpicolinamide] | – | – | < 10 | +++ (+++ indicate a value of at least 100) | 1000 to 10000 | +++ (+++ indicate a value of at least 100) | – | < 10 | 100 to 1000 | – | < 10 | –
CNC(=O)c1ccc(N2CCC(N3CCC(c4cc5ncc(Cl)cc5c(=O)[nH]4)C3)CC2)cn1 (racemic) [Compound 329rac] | – | – | < 10 | +++ (+++ indicate a value of at least 100) | 1000 to 10000 | +++ (+++ indicate a value of at least 100) | – | < 10 | 100 to 1000 | < 10 | – | –
CNC(=O)c1ccc(N2CCC(N3CCC(c4nc5ccccc5c(=O)[nH]4)C3)CC2)cn1 (single isomer, unassigned) [Compound 10b, N-methyl-5-(4-(3-(4-oxo-3,4-dihydroquinazolin-2-yl)pyrrolidin-1-yl)piperidin-1-yl)picolinamide] | < 10 | 100 to 1000 | < 10 | +++ (+++ indicate a value of at least 100) | 1000 to 10000 | +++ (+++ indicate a value of at least 100) | < 10 | – | – | – | – | –
CNC(=O)c1ccc(N2CCC(N3CCC(c4nc5ccc(F)cc5c(=O)[nH]4)C3)CC2)cn1 (single isomer, unassigned) [Compound 64b] | < 10 | 100 to 1000 | < 10 | +++ (+++ indicate a value of at least 100) | 100 to 1000 | +++ (+++ indicate a value of at least 100) | < 10 | – | – | – | – | –
CNC(=O)c1ccc(N2CCC(N3CCC(c4nc5ccc(Cl)cc5c(=O)[nH]4)C3)CC2)cn1 (single isomer, unassigned) [Compound 68a] | < 10 | 100 to 1000 | < 10 | +++ (+++ indicate a value of at least 100) | 1000 to 10000 | +++ (+++ indicate a value of at least 100) | < 10 | – | – | – | – | –
CCc1ccc(C2CCN(C3CCN(c4ccc(C(=O)NC)nc4)CC3)C2)[nH]c1=O (single isomer, unassigned) [Compound 72b] | < 10 | 100 to 1000 | < 10 | +++ (+++ indicate a value of at least 100) | 1000 to 10000 | +++ (+++ indicate a value of at least 100) | < 10 | – | – | – | – | –
CNC(=O)c1ccc(N2CCC(N3CCC(c4nc5cccc(C(F)(F)F)c5c(=O)[nH]4)C3)CC2)cn1 (single isomer, unassigned) [Compound 86b] | < 10 | < 10 | < 10 | + (+ indicates a value of 10 to less than 50) | 10 to 100 | + (+ indicates a value of 10 to less than 50) | < 10 | – | – | – | – | –
CNC(=O)c1ccc(N2CCC(N3CCC(c4cc5ccc(Cl)cc5c(=O)[nH]4)C3)CC2)cn1 (single isomer, unassigned) [Compound 129b] | < 10 | 10 to 100 | < 10 | +++ (+++ indicate a value of at least 100) | 100 to 1000 | +++ (+++ indicate a value of at least 100) | < 10 | – | – | – | – | –
CNC(=O)c1ccc(N2CCC(N3CCC(c4cc5cccc(F)c5c(=O)[nH]4)C3)CC2)cn1 (single isomer, unassigned) [Compound 136b, 5-{4-[3-(8-fluoro-1-oxo-2H-isoquinolin-3-yl)pyrrolidin-1-yl]piperidin-1-yl}-N-methylpyridine-2-carboxamide] | < 10 | 10 to 100 | < 10 | +++ (+++ indicate a value of at least 100) | 100 to 1000 | +++ (+++ indicate a value of at least 100) | < 10 | – | – | – | – | –
CNC(=O)c1ccc(N2CCC(N3CCC(c4cc5c(Cl)cccc5c(=O)[nH]4)C3)CC2)cn1 (single isomer, unassigned) [Compound 137b] | < 10 | 10 to 100 | < 10 | +++ (+++ indicate a value of at least 100) | 100 to 1000 | + (+ indicates a value of 10 to less than 50) | < 10 | – | – | – | – | –
CCc1ccc(C2CCN(C3CCN(c4ccc(C(=O)NC)nc4F)CC3)C2)[nH]c1=O (single isomer, unassigned) [Compound 151a, 5-(4-(3-(5-ethyl-6-oxo-1,6-dihydropyridin-2-yl)pyrrolidin-1-yl)piperidin-1-yl)-6-fluoro-N-methylpicolinamide] | < 10 | 100 to 1000 | < 10 | +++ (+++ indicate a value of at least 100) | > 10000 | +++ (+++ indicate a value of at least 100) | – | – | – | – | – | < 10
CNC(=O)c1ccc(N2CCC(N3CCC(c4cc5c(c(=O)[nH]4)CCCC5)C3)CC2)c(F)n1 (single isomer, unassigned) [Compound 337b, 6-fluoro-N-methyl-5-(4-(3-(1-oxo-1,2,5,6,7,8-hexahydroisoquinolin-3-yl)pyrrolidin-1-yl)piperidin-1-yl)picolinamide] | – | – | – | – | 100 to 1000 | +++ (+++ indicate a value of at least 100) | – | < 10 | – | < 10 | – | –
